The source of these data is BindingDB's records for doi:10.1016/0197-0186(94)90100-7 (Rowett Research Institute, 1994).

A value given as a limit tells only on which side of the number the result lay.

In this assay the target is T1, Melatonin receptor (Oryctolagus cuniculus, UniProt Q9BE38).
T1 sequence (Q9BE38 whole entry): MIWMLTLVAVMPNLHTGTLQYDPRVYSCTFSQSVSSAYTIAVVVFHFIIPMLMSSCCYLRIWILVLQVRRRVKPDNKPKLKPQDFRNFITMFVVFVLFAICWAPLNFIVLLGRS
What is called Ki is a measure of affinity in units of concentration, obtained from inhibition or displacement. Read a low Ki as tighter binding. As to `CC(=O)NCCc1c[nH]c2ccc(O)cc12` [N-Acetyltryptamine,5-Hydroxy], the Ki came out at 3000 nM. In the case of `COc1cc2c(CCNC(C)=O)c[nH]c2cc1O` [melatonin, 6-Hydroxy], the Ki was determined as 74 nM. The compound `COc1cc2[nH]cc(CCNC(C)=O)c2cc1OC` [melatonin, 6-Methoxy] returned an inhibition constant Ki of 460 nM. Take `COc1ccc2[nH]cc(CCO)c2c1`: the Ki was greater than 10000 nM. The figure for `CC(=O)NCCc1c[nH]c2ccccc12` [N-Acetyltryptamine] is 1600 nM.
